Reference: a melting point compilation (Tetko et al.; mined from patent text by program, amines drawn as free bases though some values may be those of a salt)

SMILES | melting point [°C]
Cc1ccc(N2CCN(Cc3ccc4c(c3)NC(=O)CO4)CC2)cc1C | 148 to 153
O=C(NCc1ccc(Cl)cc1)c1cnc2c(F)cc(-c3cccs3)cc2c1O | 298 to 301
CC(C)Cc1ccc2c(c1)C(CO)c1cc(CC(C)C)ccc1-2 | 105
COc1ccc(C2=NN(C3CCN(C(=O)[C@H](C)N)CC3)C(=O)[C@@H]3CC=CC[C@H]23)cc1OC | 101 to 103
CC(C)C[C@@H](CO)NC(=O)[C@@H](NC(=O)c1ccc(C=O)o1)C(C)C | 39 to 41
CCc1cc2c(s1)-n1c(C)nnc1C(CCCCC(=O)O)N=C2c1ccc(Cl)cc1 (centres undefined) | 257 to 260
CCCC(=O)Nc1n[nH]c2cc(-c3ccc(C(C)(C)C)cc3)ccc12 | 246
CCOC(=O)C1CC(O)CN1C(=O)c1ccc(OC)cc1 (centres undefined) | 64
COc1ccc(CC(=O)O)cc1C1CCCCC1 | 112 to 114
OC1(c2ccc(-c3ccccc3)nc2)CN2CCC1CC2 (centres undefined) | 214
Cc1oc(-c2ccccc2)nc1COc1ccccc1COc1ccccc1CC(=O)O | 145 to 146
CN(C)c1c(Cl)cc(C(O)C#Cc2ccc(C(=O)O)c(O)c2)cc1C(C)(C)C (centres undefined) | 175
CC(C)(C)OC(=O)NCc1cccc(C(=O)N[C@H]2C[C@H](C(=O)O)Nc3cc(Cl)cc(Cl)c32)c1 (relative stereo) | 192 to 193
COc1ccccc1CCn1nnnc1-c1ccc2c(c1)C=CC(C)(C)O2 | 101 to 105
O=c1[nH]c2cc(C(F)(F)F)ccc2n1CCN1CCN(C(c2ccccc2)c2ccccc2)CC1 | 164
CC1(C)C2CC[C@@]1(N1CCCCC1)[C@H](O)C2 | 88.5 to 89.5
CCC(C)(C)OC(=O)NC(C)(Cc1c[nH]c2ccccc12)C(=O)NCCc1cccs1 (centres undefined) | 95 to 98
O=CC1C(c2ccc(F)cc2)CCC12C=Cc1ccccc12 (centres undefined) | 115 to 118
O[C@H]1CC[C@H](Nc2nccc(-n3ncc4c(Br)cccc43)n2)CC1 | 200 to 202
CCc1nc2cnc3cc(Br)ccc3c2n1CC1CCN(C(=O)OC(C)(C)C)CC1 | 208 to 209

SMILES | melting point [°C]
CCOCC1CN2CCC1CC2 (centres undefined) | 73 to 77
COc1ccc(N2CCN(c3c(C)c(C)c4c(c3C)C(=O)C(C)(C)O4)CC2)cc1C | 129 to 131
Cc1nccn1S(=O)(=O)c1c[nH]cn1 | 158 to 159
O=C1c2ccccc2C(=O)N1CCCS(=O)(=O)c1ccccc1 | 126 to 127
O=C1CCC=C2N=CC=NC=C12 | 141 to 146
O=C1Nc2c(O)cc(Cl)cc2C(C#CC2CC2)(C(F)(F)F)O1 (single isomer, unassigned; (-)) | 170 to 172
CC(=O)NCC1CN(c2ccc(N(C)C=O)c(F)c2)C(=O)O1 (centres undefined) | 116 to 117
O=C(Cn1ncc(-c2ccccc2)c1-c1ccccc1)NCCN1CCCCC1 | 95 to 97
CCCCC(F)c1cc(=O)[nH]cn1 (centres undefined) | 148
CCc1nc2c(C)c(Br)c(C)nc2n1Cc1ccc2oc(-c3cccc(F)c3C(=O)O)c(Br)c2c1 | 223 to 225
CC(=O)Nc1ccc(S(=O)(=O)Nc2cccc(N(C)C(C)=O)c2)cc1 | 258 to 260
O=C(O)C1CCc2c(oc3cc(Cl)ccc23)C1 (centres undefined) | 189 to 191
CC(=O)Nc1ccc(S(=O)(=O)Nc2cccc3[nH]ccc23)cc1 | > 260
CNC(=O)C(=NOC)c1ccccc1COc1ncc(C(=O)O)cc1Cl | 189 to 195
CCNc1nc(-c2ccc(NC(=O)NCc3cccnc3)cc2)ccc1C(=O)NCCN1CCCCC1 | 164 to 165
CC12CCC3c4ccccc4CCC3C1CCC2NCc1ccccc1 (centres undefined) | 71 to 74
O=c1c2ccccc2c(-c2ccccc2)c2n1CCCC2O (centres undefined) | 220 to 222
CC(=O)Oc1ccccc1C(=O)NC(O)C(Cl)(Cl)Cl (centres undefined) | 124 to 126
CCc1nn(CCO)c(CC)c1Oc1cc(C#N)cc(-n2cncn2)c1 | 122 to 124
